Source: the supplement of paper PMC10627819

Assays:
Assay in all cases: Bliss interaction score (quartile over a dose matrix) (fitness difference); higher = more antagonism (negative = synergy)
S. pneumoniae D39V = tested on: S. pneumoniae D39V
Outline: (§1)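 Quartiles summarise the Bliss score over technical, biological and donor/recipient replicates, where the score is observed minus expected fitness under a product model. Expected fitness uses single-drug values inferred from combination data. Fitness is OD595 at entry into stationary phase over the plate's robust no-drug mean, capped at 1.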

S. aureus DSM 20231 = tested on: S. aureus DSM 20231
Outline: as §1

S. aureus Newman = tested on: S. aureus Newman
Outline: as §1

B. subtilis 168 = tested on: B. subtilis 168
Outline: as §1
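Also: first quartile when negative (synergy) and third quartile when positive (antagonism).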

Structure (SMILES) | Bliss interaction score (S. pneumoniae D39V) | Bliss interaction score (S. aureus DSM 20231) | Bliss interaction score (S. aureus Newman) | Bliss interaction score (B. subtilis 168)
CN(C)[C@@H]1C(O)=C(C(N)=O)C(=O)[C@@]2(O)C(O)=C3C(=O)c4c(O)ccc(Cl)c4[C@@](C)(O)[C@H]3C[C@@H]12 [Clortetracycline] + CN[C@H](CC(C)C)C(=O)N[C@H]1C(=O)N[C@@H](CC(N)=O)C(=O)N[C@H]2C(=O)N[C@H]3C(=O)N[C@H](C(=O)N[C@H](C(=O)O)c4cc(O)cc(O)c4-c4cc3ccc4O)[C@H](O[C@H]3C[C@](C)(N)[C@@H](O)[C@H](C)O3)c3ccc(c(Cl)c3)Oc3cc2cc(c3O[C@@H]2O[C@H](CO)[C@@H](O)[C@H](O)[C@H]2O[C@H]2C[C@](C)(NCc3ccc(-c4ccc(Cl)cc4)cc3)[C@@H](O)[C@H](C)O2)Oc2ccc(cc2Cl)[C@H]1O [Oritavancin] | 0.073 | -0.0292 | 0.0708 | -0.0243
CC(=O)Oc1ccccc1C(=O)O [Acetylsalicylicacid] + N[C@@H]1CONC1=O [CycloserineD] | 0.146 | 0.0689 | -0.115 | 0.221
CO/N=C(\C(=O)N[C@@H]1C(=O)N2C(C(=O)O)=C(COC(N)=O)CS[C@H]12)c1ccco1 [Cefuroxime] + CC[C@H]1OC(=O)[C@H](C)[C@@H](O[C@H]2C[C@@](C)(OC)[C@@H](O)[C@H](C)O2)[C@H](C)[C@@H](O[C@@H]2O[C@H](C)C[C@H](N(C)C)[C@H]2O)[C@](C)(O)C[C@@H](C)C(=O)[C@H](C)[C@@H](O)[C@]1(C)O [Erythromycin] | 0.0365 | -0.255 | 0.0555 | -0.0464
CO/N=C(\C(=O)N[C@@H]1C(=O)N2C(C(=O)O)=C(COC(C)=O)CS[C@H]12)c1csc(N)n1 [Cefotaxime] + CC(=O)O[C@H]1C[C@@]2(C)[C@@H](C[C@@H](O)[C@H]3[C@@]4(C)CC[C@@H](O)[C@@H](C)[C@@H]4CC[C@@]32C)/C1=C(\CCC=C(C)C)C(=O)O [Fusidic acid] | 0.11 | 0.0189 | 0.0487 | 0.0613
CN(C)[C@@H]1C(O)=C(C(N)=O)C(=O)[C@@]2(O)C(O)=C3C(=O)c4c(O)ccc(Cl)c4[C@@](C)(O)[C@H]3C[C@@H]12 [Clortetracycline] + CO[C@@H]1[C@@H](OC(N)=O)[C@@H](O)[C@H](Oc2ccc3c(O)c(NC(=O)c4ccc(O)c(CC=C(C)C)c4)c(=O)oc3c2C)OC1(C)C [Novobiocin] | 0.192 | 0.104 | 0.0791 | 0.0909
N#CC(C#N)=NNc1cccc(Cl)c1 [CCCP] + CN(C)[C@@H]1C(O)=C(C(N)=O)C(=O)[C@@]2(O)C(O)=C3C(=O)c4c(O)ccc(Cl)c4[C@@](C)(O)[C@H]3C[C@@H]12 [Clortetracycline] | -0.0306 | 0.0445 | 0.0865 | -0.0685
CC(=O)Oc1ccccc1C(=O)O [Acetylsalicylicacid] + Oc1cc(Cl)ccc1Oc1ccc(Cl)cc1Cl [Triclosan] | -0.0513 | -0.114 | -0.0273 | 0.129
COc1ccc(C[C@H](N)C(=O)N[C@H]2[C@@H](O)[C@H](n3cnc4c(N(C)C)ncnc43)O[C@@H]2CO)cc1 [Puromycin] + Oc1cc(Cl)ccc1Oc1ccc(Cl)cc1Cl [Triclosan] | 0.102 | 0.0973 | 0.0281 | 0.0476
CC(=O)Oc1ccccc1C(=O)O [Acetylsalicylicacid] + C[n+]1ccc(-c2cc[n+](C)cc2)cc1 [Paraquat] | -0.0664 | 0.067 | 0.0558 | 0.067
C[C@H]1c2cccc(O)c2C(=O)C2=C(O)[C@]3(O)C(=O)C(C(N)=O)=C(O)[C@@H](N(C)C)[C@@H]3[C@@H](O)[C@@H]21 [Doxycycline] + CC[C@H]1OC(=O)[C@H](C)[C@@H](O[C@H]2C[C@@](C)(OC)[C@@H](O)[C@H](C)O2)[C@H](C)[C@@H](O[C@@H]2O[C@H](C)C[C@H](N(C)C)[C@H]2O)[C@](C)(O)C[C@@H](C)C(=O)[C@H](C)[C@@H](O)[C@]1(C)O [Erythromycin] | -0.161 | -0.0389 | -0.0251 | -0.162
CN(C)[C@@H]1C(O)=C(C(N)=O)C(=O)[C@@]2(O)C(O)=C3C(=O)c4c(O)ccc(Cl)c4[C@@](C)(O)[C@H]3C[C@@H]12 [Clortetracycline] + Clc1ccc(COC(Cn2ccnc2)c2ccc(Cl)cc2Cl)c(Cl)c1 [Miconazole] | 0.0793 | 0.0511 | 0.0716 | 0.0788
CO/N=C(\C(=O)N[C@@H]1C(=O)N2C(C(=O)O)=C(COC(N)=O)CS[C@H]12)c1ccco1 [Cefuroxime] + C[C@@H](O)[C@H]1C(=O)N2C(C(=O)O)=C(SCCNC=N)C[C@H]12 [Imipenem] | 0.0481 | 0.145 | -0.0353 | 0.0678
CO/N=C(\C(=O)N[C@@H]1C(=O)N2C(C(=O)O)=C(COC(C)=O)CS[C@H]12)c1csc(N)n1 [Cefotaxime] + O=C(O)c1cn(C2CC2)c2cc(N3CCNCC3)c(F)cc2c1=O [Ciprofloxacin] | 0.154 | -0.0413 | 0.0294 | -0.144
N#CC(C#N)=NNc1cccc(Cl)c1 [CCCP] + C[C@@H]1O[C@@H]1P(=O)(O)O [Fosfomycin] | 0.0604 | 0.0417 | 0.0906 | 0.0638
CO/N=C(\C(=O)N[C@@H]1C(=O)N2C(C(=O)O)=C(COC(C)=O)CS[C@H]12)c1csc(N)n1 [Cefotaxime] + CN(C)[C@@H]1C(O)=C(C(N)=O)C(=O)[C@@]2(O)C(O)=C3C(=O)c4c(O)ccc(Cl)c4[C@@](C)(O)[C@H]3C[C@@H]12 [Clortetracycline] | 0.0665 | 0.0917 | 0.0483 | 0.0481
CO/N=C(\C(=O)N[C@@H]1C(=O)N2C(C(=O)O)=C(COC(C)=O)CS[C@H]12)c1csc(N)n1 [Cefotaxime] + CC1(C)S[C@@H]2[C@H](NC(=O)Cc3ccccc3)C(=O)N2[C@H]1C(=O)O [PenicillinG] | -0.0791 | -0.0835 | -0.0351 | -0.151
